Data published in patent EP4714953A1, “MELANOCORTIN 2-TYPE RECEPTOR ANTAGONIST” (Scohia Pharma, Inc., priority 2023, dated 2024).
Counter-ions that a name gives are not always drawn.

Biological target: T1, human MC2R (Homo sapiens, UniProt Q01718)
T1 construct: host or cells: GeneBLAzer MC2R-CRE-bla CHO-K1 cells
Assay: Measurement of human MC2R inhibitory activity using intracellular cAMP concentration as an indicator
Format: cell-based
Settings: test compound at 1 µM, GeneBLAzer MC2R-CRE-bla CHO-K1 cells, ACTH (Human 1-24) final concentration 3 pM, intracellular cAMP by HTRF; for inhibition at 1 µM: read-out: MC2R inhibition rate (% of inhibition)
Procedure: Experimental Example 1: Measurement of human MC2R inhibitory activity using intracellular cAMP concentration as an indicator
GeneBLAzer MC2R-CRE-bla CHO-K1 cells (Thermo Fisher Scientific) that had been cryopreserved in advance were thawed and suspended in a medium [Dulbecco's Modified Eagle Medium (Thermo Fisher Scientific) containing fetal bovine serum (10% (v/v), HyClone Laboratories), Non-Essential Amino Acids Solution (1/100 (w/w), Thermo Fisher Scientific), HEPES (25 mM, Thermo Fisher Scientific), Penicillin/Streptomycin (1/100 (w/w), Fujifilm Wako)]. After centrifuging the cell suspension, the supernatant was removed, the cells were suspended in D-PBS(-) (Fujifilm Wako), and the supernatant was removed again after centrifugation. The cells were resuspended in an assay buffer [Hank's Balanced Salt Solution (Thermo Fisher Scientific) containing HEPES pH 7.5 (10 mM, Thermo Fisher Scientific), fatty acid-free bovine serum albumin (0.01% (w/v), Sigma), IBMX (500 µM, Fujifilm Wako)] and added to a 384-well white plate (Greiner) at 1,500 cells/well. Then, the test compound prepared using the assay buffer was added, and after standing for 20 min, an assay buffer containing ACTH (Human 1-24) (Peptide Institute) was added (ACTH final concentration, 3 pM). After standing at room temperature for 30 min, the intracellular cAMP level was measured using cAMP Gs HiRange kit HTRF (PerkinElmer). The inhibition rate (%) of the compound against MC2R was calculated using the following formula. Inhibition rate (%) = […] [formula] • A: cAMP concentration calculated from wells containing 3 pM ACTH (1-24) • B: cAMP concentration calculated from wells without addition of 3 pM ACTH (1-24) • C: cAMP concentration calculated from wells containing 3 pM ACTH (1-24) and test compound at concentration determined in advance

T1 sequence (Q01718 whole entry): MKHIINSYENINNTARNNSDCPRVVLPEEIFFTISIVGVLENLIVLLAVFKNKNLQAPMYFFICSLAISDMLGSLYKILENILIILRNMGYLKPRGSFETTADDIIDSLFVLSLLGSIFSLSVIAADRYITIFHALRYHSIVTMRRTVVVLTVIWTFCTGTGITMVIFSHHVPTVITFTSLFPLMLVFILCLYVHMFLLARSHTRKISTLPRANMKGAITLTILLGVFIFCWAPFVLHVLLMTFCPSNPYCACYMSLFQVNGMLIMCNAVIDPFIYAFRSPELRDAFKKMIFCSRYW
T1 sequence (Q8TCY5 whole entry partner): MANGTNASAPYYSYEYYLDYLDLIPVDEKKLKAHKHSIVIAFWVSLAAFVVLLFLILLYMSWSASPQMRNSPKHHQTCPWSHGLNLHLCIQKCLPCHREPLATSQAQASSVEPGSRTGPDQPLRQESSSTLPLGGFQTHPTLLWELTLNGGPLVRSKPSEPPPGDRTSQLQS

CCOc1ncccc1-c1ccc(N2CCN3C(=O)N(c4ccc(Cl)cc4C(F)(F)F)C[C@@H]3C2)c(C(=O)NCCC2CCN(C(=O)OC(C)(C)C)CC2)n1 [Example 21, tert-butyl 4-[2-[[3-[(8aS)-2-[4-chloro-2-(trifluoromethyl)phenyl]-3-oxo-5,6,8,8a-tetrahydro-1H-imidazo[1,5-a]pyrazin-7-yl]-6-(2-ethoxypyridin-3-yl)pyridine-2-carbonyl]amino]ethyl]piperidine-1-carboxylate]
inhibition at 1 µM: 82%

CCOc1ncccc1-c1ccc(N2CCN3C(=O)N(c4ccc(Cl)cc4C(F)(F)F)C[C@@H]3C2)c(C(=O)NCCCn2cccn2)n1 [Example 22, 3-[(8aS)-2-[4-chloro-2-(trifluoromethyl)phenyl]-3-oxo-5,6,8,8a-tetrahydro-1H-imidazo[1,5-a]pyrazin-7-yl]-6-(2-ethoxypyridin-3-yl)-N-(3-pyrazol-1-ylpropyl)pyridine-2-carboxamide]
inhibition at 1 µM: 100%

CCOc1ncccc1-c1ccc(N2CCN3C(=O)N(c4ccc(Cl)cc4C(F)(F)F)C[C@@H]3C2)c(C(=O)N[C@@H]2CCN(C)C2)n1 [Example 23, 3-[(8aS)-2-[4-chloro-2-(trifluoromethyl)phenyl]-3-oxo-5,6,8,8a-tetrahydro-1H-imidazo[1,5-a]pyrazin-7-yl]-6-(2-ethoxypyridin-3-yl)-N-[(3R)-1-methylpyrrolidin-3-yl]pyridine-2-carboxamide]
inhibition at 1 µM: 100%

CCOc1ncccc1-c1ccc(N2CCN3C(=O)N(c4ccc(Cl)cc4C(F)(F)F)C[C@@H]3C2)c(C(=O)NC2CCNC2)n1 (stereo partly drawn) [Example 24, 3-[(8aS)-2-[4-chloro-2-(trifluoromethyl)phenyl]-3-oxo-5,6,8,8a-tetrahydro-1H-imidazo[1,5-a]pyrazin-7-yl]-6-(2-ethoxypyridin-3-yl)-N-pyrrolidin-3-ylpyridine-2-carboxamide 2hydrochloride]
MC2R inhibition rate (% of inhibition): 100%

CCOc1ncccc1-c1ccc(N2CCN3C(=O)N(c4ccc(Cl)cc4C(F)(F)F)C[C@@H]3C2)c(C(=O)NCCC2CCNCC2)n1 [Example 25, 3-[(8aS)-2-[4-chloro-2-(trifluoromethyl)phenyl]-3-oxo-5,6,8,8a-tetrahydro-1H-imidazo[1,5-a]pyrazin-7-yl]-6-(2-ethoxypyridin-3-yl)-N-(2-piperidin-4-ylethyl)pyridine-2-carboxamide 2 hydrochloride]
MC2R inhibition rate (% of inhibition): 99%

CCOc1ncccc1-c1ccc(N2C[C@H]3CN(c4ccc(Cl)cc4C(F)(F)F)C(=O)N3C[C@H]2CC)c(C(=O)NCCN(C)C)n1 [Example 26, 3-[(6R,8aS)-2-[4-chloro-2-(trifluoromethyl)phenyl]-6-ethyl-3-oxo-5,6,8,8a-tetrahydro-1H-imidazo[1,5-a]pyrazin-7-yl]-N-[2-(dimethylamino)ethyl]-6-(2-ethoxypyridin-3-yl)pyridine-2-carboxamide]
inhibition at 1 µM: 100%

CCOc1ncccc1-c1ccc(N2C[C@H]3CN(c4ccc(Cl)cc4C(F)(F)F)C(=O)N3C[C@H]2CC)c(C(N)=O)n1 [Example 27, 3-[(6R,8aS)-2-[4-chloro-2-(trifluoromethyl)phenyl]-6-ethyl-3-oxo-5,6,8,8a-tetrahydro-1H-imidazo[1,5-a]pyrazin-7-yl]-6-(2-ethoxypyridin-3-yl)pyridine-2-carboxamide]
inhibition at 1 µM: 100%

CCOc1ncccc1-c1ccc(N2CCN3C(=O)N(c4ccc(Cl)cc4C(F)(F)F)C[C@@H]3C2)c(C(=O)NC2CCNC2)n1 (stereo partly drawn) [Example 28, 3-[(8aS)-2-[4-chloro-2-(trifluoromethyl)phenyl]-3-oxo-5,6,8,8a-tetrahydro-1H-imidazo[1,5-a]pyrazin-7-yl]-6-(2-ethoxypyridin-3-yl)-N-pyrrolidin-3-ylpyridine-2-carboxamide]
inhibition at 1 µM: 100%

CCOc1ncccc1-c1ccc(N2C[C@H]3CN(c4ccc(Cl)cc4C(F)(F)F)C(=O)N3C[C@H]2CC)c(C(=O)NC2CNC(=O)C2)n1 (stereo partly drawn) [Example 29, 3-[(6R,8aS)-2-[4-chloro-2-(trifluoromethyl)phenyl]-6-ethyl-3-oxo-5,6,8,8a-tetrahydro-1H-imidazo[1,5-a]pyrazin-7-yl]-6-(2-ethoxypyridin-3-yl)-N-(5-oxopyrrolidin-3-yl)pyridine-2-carboxamide]
inhibition at 1 µM: 100%

CCOc1ncccc1-c1ccc(N2C[C@H]3CN(c4ccc(Cl)cc4C(F)(F)F)C(=O)N3C[C@H]2CC)c(C(=O)NCC2(O)CC2)n1 [Example 32, 3-[(6R,8aS)-2-[4-chloro-2-(trifluoromethyl)phenyl]-6-ethyl-3-oxo-5,6,8,8a-tetrahydro-1H-imidazo[1,5-a]pyrazin-7-yl]-6-(2-ethoxypyridin-3-yl)-N-[(1-hydroxycyclopropyl)methyl]pyridine-2-carboxamide]
inhibition at 1 µM: 100%

CCOc1ncccc1-c1ccc(N2C[C@H]3CN(c4ccc(Cl)cc4C(F)(F)F)C(=O)N3C[C@H]2CC)c(C(=O)NC[C@@H](C)O)n1 [Example 33, 3-[(6R,8aS)-2-[4-chloro-2-(trifluoromethyl)phenyl]-6-ethyl-3-oxo-5,6,8,8a-tetrahydro-1H-imidazo[1,5-a]pyrazin-7-yl]-6-(2-ethoxypyridin-3-yl)-N-[(2R)-2-hydroxypropyl]pyridine-2-carboxamide]
inhibition at 1 µM: 100%

CCOc1ncccc1-c1ccc(N2C[C@H]3CN(c4ccc(Cl)cc4C(F)(F)F)C(=O)N3C[C@H]2CC)c(C(=O)NCC(C)(C)O)n1 [Example 35, 3-[(6R,8aS)-2-[4-chloro-2-(trifluoromethyl)phenyl]-6-ethyl-3-oxo-5,6,8,8a-tetrahydro-1H-imidazo[1,5-a]pyrazin-7-yl]-6-(2-ethoxypyridin-3-yl)-N-(2-hydroxy-2-methylpropyl)pyridine-2-carboxamide]
inhibition at 1 µM: 100%

CCOc1ncccc1-c1ccc(N2C[C@H]3CN(c4ccc(Cl)cc4C(F)(F)F)C(=O)N3C[C@H]2CC)c(C(=O)NCCNC(C)=O)n1 [Example 36, N-(2-acetamidoethyl)-3-[(6R,8aS)-2-[4-chloro-2-(trifluoromethyl)phenyl]-6-ethyl-3-oxo-5,6,8,8a-tetrahydro-1H-imidazo[1,5-a]pyrazin-7-yl]-6-(2-ethoxypyridin-3-yl)pyridine-2-carboxamide]
inhibition at 1 µM: 100%

CCOc1ncccc1-c1ccc(N2C[C@H]3CN(c4ccc(Cl)cc4C(F)(F)F)C(=O)N3C[C@H]2CC)c(C(=O)O)n1 [Example 38a, 3-[(6R,8aS)-2-[4-chloro-2-(trifluoromethyl)phenyl]-6-ethyl-3-oxo-5,6,8,8a-tetrahydro-1H-imidazo[1,5-a]pyrazin-7-yl]-6-(2-ethoxy-3-pyridyl)pyridine-2-carboxylic acid]
inhibition at 1 µM: 91%

CCOc1ncccc1-c1ccc(N2C[C@H]3CN(c4ccc(Cl)cc4C(F)(F)F)C(=O)N3C[C@H]2CC)c(C(=O)N[C@@H]2CNC(=O)C2)n1 [Example 39, 3-[(6R,8aS)-2-[4-chloro-2-(trifluoromethyl)phenyl]-6-ethyl-3-oxo-5,6,8,8a-tetrahydro-1H-imidazo[1,5-a]pyrazin-7-yl]-6-(2-ethoxypyridin-3-yl)-N-[(3S)-5-oxopyrrolidin-3-yl]pyridine-2-carboxamide]
inhibition at 1 µM: 100%

CCOc1ncccc1-c1ccc(N2C[C@H]3CN(c4ccc(Cl)cc4C(F)(F)F)C(=O)N3C[C@H]2CC)c(C(=O)N[C@H](C)C(=O)NC)n1 [Example 40, 3-[(6R,8aS)-2-[4-chloro-2-(trifluoromethyl)phenyl]-6-ethyl-3-oxo-5,6,8,8a-tetrahydro-1H-imidazo[1,5-a]pyrazin-7-yl]-6-(2-ethoxypyridin-3-yl)-N-[(2R)-1-(methylamino)-1-oxopropan-2-yl]pyridine-2-carboxamide]
inhibition at 1 µM: 100%

CCOc1ncccc1-c1ccc(N2C[C@H]3CN(c4ccc(Cl)cc4C(F)(F)F)C(=O)N3C[C@H]2CC)c(C(=O)N[C@@H](C)C(=O)NC)n1 [Example 41, 3-[(6R,8aS)-2-[4-chloro-2-(trifluoromethyl)phenyl]-6-ethyl-3-oxo-5,6,8,8a-tetrahydro-1H-imidazo[1,5-a]pyrazin-7-yl]-6-(2-ethoxypyridin-3-yl)-N-[(2S)-1-(methylamino)-1-oxopropan-2-yl]pyridine-2-carboxamide]
inhibition at 1 µM: 100%

CCOc1ncccc1-c1ccc(N2C[C@H]3CN(c4ccc(Cl)cc4C(F)(F)F)C(=O)N3C[C@H]2CC)c(C(=O)NC2CC(=O)N(C)C2)n1 (stereo partly drawn) [Example 42, 3-[(6R,8aS)-2-[4-chloro-2-(trifluoromethyl)phenyl]-6-ethyl-3-oxo-5,6,8,8a-tetrahydro-1H-imidazo[1,5-a]pyrazin-7-yl]-6-(2-ethoxypyridin-3-yl)-N-(1-methyl-5-oxopyrrolidin-3-yl)pyridine-2-carboxamide]
inhibition at 1 µM: 100%
